Here are results for four compounds from ChEMBL document CHEMBL3991601, “The target landscape of clinical kinase drugs” (Science, 2017).

Some targets named below: Ephrin type-A receptor 2 (Homo sapiens, UniProt P29317); Ephrin type-A receptor 7 (Homo sapiens, UniProt Q15375); Insulin receptor (Homo sapiens, UniProt P06213).
In test [1] the target is Dual specificity mitogen-activated protein kinase kinase 2 (Homo sapiens, UniProt P36507).
Test [2] deals with T1, Serine/threonine-protein kinase TAO1 (Homo sapiens, UniProt Q7L7X3).
T1 sequence (Q7L7X3 whole entry): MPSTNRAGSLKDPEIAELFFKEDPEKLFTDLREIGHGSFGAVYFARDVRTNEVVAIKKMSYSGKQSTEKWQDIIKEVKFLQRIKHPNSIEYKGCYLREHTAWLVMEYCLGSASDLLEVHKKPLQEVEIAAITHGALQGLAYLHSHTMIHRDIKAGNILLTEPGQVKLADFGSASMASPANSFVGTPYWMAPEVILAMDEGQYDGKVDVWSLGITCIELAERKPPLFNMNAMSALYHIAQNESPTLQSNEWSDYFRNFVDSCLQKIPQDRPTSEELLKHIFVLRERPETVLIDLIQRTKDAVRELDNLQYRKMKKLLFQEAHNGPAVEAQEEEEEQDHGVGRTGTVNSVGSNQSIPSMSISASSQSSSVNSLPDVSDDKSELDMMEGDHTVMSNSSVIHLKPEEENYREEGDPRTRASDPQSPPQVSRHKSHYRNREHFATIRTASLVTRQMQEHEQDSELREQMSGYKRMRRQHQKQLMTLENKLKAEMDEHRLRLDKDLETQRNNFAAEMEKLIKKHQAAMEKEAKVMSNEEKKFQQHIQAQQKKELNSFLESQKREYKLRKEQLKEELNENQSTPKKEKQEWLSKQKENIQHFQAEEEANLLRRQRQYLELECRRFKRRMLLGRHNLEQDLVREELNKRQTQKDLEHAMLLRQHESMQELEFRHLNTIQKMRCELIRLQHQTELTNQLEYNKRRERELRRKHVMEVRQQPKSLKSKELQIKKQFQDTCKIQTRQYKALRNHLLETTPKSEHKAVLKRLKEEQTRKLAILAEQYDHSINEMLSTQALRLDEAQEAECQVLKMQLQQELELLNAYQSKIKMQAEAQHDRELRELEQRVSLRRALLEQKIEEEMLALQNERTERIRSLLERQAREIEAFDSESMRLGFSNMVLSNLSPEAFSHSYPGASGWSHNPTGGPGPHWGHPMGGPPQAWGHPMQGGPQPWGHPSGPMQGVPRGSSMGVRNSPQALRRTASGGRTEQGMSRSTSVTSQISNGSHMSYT

The target of test [3] is T2, NUAK family SNF1-like kinase 2 (Homo sapiens, UniProt Q9H093).
T2 sequence (Q9H093 whole entry): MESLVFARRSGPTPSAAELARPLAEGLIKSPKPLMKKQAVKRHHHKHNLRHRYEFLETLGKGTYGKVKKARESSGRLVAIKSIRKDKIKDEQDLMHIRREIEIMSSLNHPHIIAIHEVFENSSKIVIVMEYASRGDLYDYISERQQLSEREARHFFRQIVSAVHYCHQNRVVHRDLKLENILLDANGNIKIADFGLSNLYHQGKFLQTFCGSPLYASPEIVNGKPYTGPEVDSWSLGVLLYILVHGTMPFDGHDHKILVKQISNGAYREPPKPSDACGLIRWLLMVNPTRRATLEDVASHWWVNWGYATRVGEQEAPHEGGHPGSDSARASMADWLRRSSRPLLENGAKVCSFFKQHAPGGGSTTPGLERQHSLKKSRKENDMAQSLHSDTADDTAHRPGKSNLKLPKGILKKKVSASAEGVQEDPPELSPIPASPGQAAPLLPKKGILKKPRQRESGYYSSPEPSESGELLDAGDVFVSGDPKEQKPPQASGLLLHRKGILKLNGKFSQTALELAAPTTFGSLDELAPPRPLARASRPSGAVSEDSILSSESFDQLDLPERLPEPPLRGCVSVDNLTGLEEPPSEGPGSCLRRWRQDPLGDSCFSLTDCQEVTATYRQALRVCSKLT

In test [4] the target is MAP/microtubule affinity-regulating kinase 3 (Homo sapiens, UniProt P27448).
The target of test [5] is T3, RNA cytidine acetyltransferase (Homo sapiens, UniProt Q9H0A0).
T3 sequence (Q9H0A0 whole entry): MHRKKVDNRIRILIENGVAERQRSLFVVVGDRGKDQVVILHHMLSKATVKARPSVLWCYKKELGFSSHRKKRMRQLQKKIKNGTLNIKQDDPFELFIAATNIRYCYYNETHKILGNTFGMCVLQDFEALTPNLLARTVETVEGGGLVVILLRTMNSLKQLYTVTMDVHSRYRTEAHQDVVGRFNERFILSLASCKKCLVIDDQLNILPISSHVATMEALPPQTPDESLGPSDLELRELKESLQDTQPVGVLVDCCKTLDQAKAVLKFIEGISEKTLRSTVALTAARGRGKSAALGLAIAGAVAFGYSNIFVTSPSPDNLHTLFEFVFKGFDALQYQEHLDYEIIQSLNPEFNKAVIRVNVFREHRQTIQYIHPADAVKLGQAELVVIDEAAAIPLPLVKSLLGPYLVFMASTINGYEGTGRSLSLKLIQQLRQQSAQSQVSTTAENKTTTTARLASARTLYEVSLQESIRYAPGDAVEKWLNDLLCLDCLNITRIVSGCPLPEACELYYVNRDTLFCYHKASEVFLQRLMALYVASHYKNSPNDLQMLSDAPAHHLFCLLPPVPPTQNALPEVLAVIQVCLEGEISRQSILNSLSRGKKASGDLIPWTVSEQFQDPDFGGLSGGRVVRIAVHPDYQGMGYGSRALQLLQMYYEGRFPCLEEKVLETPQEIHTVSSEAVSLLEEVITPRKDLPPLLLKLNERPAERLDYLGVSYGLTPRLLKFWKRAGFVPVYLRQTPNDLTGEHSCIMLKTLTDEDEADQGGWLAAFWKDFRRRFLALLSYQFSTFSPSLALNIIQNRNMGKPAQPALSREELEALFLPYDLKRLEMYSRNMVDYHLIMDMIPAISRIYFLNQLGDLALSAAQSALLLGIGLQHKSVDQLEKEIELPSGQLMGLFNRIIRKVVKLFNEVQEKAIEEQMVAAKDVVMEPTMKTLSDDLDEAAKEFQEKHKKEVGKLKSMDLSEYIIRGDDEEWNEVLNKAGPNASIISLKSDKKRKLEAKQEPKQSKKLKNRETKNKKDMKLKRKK

Test [6] addresses Serine/threonine-protein kinase 26 (Homo sapiens, UniProt Q9P289).
In test [7] the target is Chromodomain-helicase-DNA-binding protein 4 (Homo sapiens, UniProt Q14839).

Activity calls are given as the source filed them. For most assays here, no stated cut-off is given here; in the data, actives have a measured Kd and inactives only a lower limit.

Chromodomain-helicase-DNA-binding protein 4, sequence (Q14839 whole entry): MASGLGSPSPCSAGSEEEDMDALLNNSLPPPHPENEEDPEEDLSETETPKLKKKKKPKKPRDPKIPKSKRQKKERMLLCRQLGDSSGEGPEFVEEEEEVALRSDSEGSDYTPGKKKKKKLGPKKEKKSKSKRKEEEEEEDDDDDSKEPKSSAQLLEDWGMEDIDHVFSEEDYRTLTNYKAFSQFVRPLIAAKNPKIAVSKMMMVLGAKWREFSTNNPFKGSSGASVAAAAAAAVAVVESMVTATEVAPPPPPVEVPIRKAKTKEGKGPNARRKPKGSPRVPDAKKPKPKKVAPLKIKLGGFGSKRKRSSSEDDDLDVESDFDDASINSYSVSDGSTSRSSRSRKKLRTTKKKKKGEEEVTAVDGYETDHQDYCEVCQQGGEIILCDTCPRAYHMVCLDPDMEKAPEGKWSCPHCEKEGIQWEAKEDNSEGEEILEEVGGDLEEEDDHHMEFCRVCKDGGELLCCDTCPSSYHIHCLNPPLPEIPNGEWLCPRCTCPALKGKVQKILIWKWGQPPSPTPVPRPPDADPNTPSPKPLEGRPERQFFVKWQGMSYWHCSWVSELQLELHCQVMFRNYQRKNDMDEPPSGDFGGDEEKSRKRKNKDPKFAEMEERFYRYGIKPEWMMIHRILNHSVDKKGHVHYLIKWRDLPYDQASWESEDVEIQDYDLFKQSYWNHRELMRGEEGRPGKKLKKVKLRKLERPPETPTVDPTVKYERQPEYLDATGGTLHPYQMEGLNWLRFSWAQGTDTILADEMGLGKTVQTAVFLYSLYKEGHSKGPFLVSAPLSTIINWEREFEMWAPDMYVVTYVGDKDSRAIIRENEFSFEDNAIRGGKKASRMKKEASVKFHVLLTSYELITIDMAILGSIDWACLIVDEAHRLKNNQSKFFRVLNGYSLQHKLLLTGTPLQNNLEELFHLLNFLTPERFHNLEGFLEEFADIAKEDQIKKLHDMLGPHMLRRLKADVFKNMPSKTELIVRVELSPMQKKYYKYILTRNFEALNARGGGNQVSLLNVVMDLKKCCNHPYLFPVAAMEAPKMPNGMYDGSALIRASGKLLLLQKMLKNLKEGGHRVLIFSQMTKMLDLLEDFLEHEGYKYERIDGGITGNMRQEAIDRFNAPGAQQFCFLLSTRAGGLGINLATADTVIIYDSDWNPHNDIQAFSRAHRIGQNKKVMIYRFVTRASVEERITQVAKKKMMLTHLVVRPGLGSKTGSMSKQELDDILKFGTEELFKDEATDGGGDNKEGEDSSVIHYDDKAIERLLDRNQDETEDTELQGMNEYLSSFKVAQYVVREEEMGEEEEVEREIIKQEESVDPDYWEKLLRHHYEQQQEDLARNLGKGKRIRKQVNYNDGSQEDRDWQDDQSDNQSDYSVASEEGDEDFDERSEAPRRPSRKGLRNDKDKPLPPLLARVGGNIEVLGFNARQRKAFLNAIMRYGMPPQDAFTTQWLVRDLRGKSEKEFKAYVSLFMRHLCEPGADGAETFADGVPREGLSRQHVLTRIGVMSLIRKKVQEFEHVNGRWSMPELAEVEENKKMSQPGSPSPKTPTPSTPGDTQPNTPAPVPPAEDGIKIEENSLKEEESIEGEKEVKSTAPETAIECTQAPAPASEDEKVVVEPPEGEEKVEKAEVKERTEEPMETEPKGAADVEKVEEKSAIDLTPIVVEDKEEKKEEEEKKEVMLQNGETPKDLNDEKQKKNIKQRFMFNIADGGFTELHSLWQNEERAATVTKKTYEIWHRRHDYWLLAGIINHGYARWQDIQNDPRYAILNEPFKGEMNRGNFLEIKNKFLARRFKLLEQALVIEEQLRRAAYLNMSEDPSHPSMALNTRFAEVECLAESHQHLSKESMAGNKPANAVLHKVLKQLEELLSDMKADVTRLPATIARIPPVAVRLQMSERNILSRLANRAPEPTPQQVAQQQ
Serine/threonine-protein kinase 26, sequence (Q9P289 whole entry): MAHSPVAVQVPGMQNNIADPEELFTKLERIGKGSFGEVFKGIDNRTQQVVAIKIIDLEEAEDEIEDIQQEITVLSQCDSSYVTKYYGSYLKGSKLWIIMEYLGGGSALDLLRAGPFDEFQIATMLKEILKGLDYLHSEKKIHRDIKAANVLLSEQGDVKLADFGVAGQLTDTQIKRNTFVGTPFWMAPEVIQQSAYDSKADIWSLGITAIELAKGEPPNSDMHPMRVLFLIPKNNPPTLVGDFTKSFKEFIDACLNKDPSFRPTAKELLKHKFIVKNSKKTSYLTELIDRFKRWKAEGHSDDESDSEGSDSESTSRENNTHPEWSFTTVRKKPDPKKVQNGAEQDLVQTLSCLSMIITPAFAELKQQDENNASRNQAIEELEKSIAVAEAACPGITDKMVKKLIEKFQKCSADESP
Insulin receptor, sequence (P06213 28-758 limits assumed): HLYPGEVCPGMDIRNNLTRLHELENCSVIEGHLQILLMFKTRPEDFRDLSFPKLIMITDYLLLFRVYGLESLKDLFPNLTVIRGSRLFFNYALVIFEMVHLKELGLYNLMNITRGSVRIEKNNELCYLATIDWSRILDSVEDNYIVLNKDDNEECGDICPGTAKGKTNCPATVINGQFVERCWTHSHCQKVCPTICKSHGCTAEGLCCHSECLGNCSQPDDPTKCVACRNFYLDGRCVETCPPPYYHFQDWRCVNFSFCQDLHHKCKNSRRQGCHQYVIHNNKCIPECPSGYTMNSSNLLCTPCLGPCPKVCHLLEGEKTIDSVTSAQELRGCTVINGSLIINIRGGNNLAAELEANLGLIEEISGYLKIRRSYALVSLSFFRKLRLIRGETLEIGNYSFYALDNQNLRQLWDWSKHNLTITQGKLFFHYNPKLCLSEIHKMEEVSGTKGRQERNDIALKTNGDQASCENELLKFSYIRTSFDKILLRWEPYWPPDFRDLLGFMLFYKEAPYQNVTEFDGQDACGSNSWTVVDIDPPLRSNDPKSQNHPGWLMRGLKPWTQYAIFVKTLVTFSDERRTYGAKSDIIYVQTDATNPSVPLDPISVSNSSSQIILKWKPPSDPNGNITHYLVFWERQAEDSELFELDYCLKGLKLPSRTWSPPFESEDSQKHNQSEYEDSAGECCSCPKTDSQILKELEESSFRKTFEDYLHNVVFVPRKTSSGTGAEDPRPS
Insulin receptor, sequence (P06213 763-1382 limits assumed): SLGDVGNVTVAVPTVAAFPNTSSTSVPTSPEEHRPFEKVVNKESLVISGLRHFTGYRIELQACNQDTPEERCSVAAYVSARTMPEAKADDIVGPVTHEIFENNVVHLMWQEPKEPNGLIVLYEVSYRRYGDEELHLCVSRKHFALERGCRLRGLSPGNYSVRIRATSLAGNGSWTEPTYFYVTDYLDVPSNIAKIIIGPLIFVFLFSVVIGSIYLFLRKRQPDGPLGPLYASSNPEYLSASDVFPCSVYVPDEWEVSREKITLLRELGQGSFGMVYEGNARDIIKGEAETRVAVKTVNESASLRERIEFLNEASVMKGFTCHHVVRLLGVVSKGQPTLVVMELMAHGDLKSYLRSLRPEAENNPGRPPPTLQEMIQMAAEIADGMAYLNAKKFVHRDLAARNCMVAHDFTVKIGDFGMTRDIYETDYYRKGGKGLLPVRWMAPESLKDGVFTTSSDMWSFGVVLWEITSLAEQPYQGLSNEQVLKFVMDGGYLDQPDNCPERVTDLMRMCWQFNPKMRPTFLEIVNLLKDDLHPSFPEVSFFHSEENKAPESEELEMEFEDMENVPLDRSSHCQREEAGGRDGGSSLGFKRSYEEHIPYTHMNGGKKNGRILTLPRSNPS
Dual specificity mitogen-activated protein kinase kinase 2, sequence (P36507 whole entry): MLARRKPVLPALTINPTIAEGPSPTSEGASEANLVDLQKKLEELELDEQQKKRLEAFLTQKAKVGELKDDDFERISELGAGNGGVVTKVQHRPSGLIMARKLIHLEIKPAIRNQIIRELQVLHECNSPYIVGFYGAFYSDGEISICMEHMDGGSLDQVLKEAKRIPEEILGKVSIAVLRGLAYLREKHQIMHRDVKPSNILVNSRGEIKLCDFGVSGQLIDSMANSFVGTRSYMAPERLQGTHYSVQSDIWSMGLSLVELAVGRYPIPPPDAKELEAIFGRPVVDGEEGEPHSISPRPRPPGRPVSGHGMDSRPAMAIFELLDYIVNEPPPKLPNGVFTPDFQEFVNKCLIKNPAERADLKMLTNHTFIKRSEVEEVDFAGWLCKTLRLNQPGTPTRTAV
MAP/microtubule affinity-regulating kinase 3, sequence (P27448 whole entry): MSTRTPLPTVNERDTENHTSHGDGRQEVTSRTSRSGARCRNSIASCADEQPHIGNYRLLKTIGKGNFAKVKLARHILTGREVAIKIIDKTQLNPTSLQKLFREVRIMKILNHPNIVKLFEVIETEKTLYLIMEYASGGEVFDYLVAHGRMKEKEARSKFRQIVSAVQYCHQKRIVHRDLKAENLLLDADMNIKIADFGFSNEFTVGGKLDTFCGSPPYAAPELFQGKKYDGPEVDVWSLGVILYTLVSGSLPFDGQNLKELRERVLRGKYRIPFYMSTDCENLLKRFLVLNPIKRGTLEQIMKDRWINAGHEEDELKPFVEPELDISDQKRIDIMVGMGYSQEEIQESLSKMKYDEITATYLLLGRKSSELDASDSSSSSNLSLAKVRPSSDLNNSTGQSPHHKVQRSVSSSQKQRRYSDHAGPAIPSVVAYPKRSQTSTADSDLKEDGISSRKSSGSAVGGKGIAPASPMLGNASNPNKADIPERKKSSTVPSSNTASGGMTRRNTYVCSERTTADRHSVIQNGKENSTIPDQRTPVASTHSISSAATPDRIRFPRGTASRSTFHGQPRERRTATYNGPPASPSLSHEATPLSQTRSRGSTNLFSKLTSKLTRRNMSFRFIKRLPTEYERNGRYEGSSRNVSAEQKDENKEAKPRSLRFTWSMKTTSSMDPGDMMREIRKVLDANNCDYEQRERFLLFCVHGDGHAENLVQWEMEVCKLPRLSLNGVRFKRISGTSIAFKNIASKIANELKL

In general, Kd refers to the equilibrium constant for the complex coming apart. `Cc1cc(Nc2ncnc3ccc(NC4=NC(C)(C)CO4)cc23)ccc1Oc1ccn2ncnc2c1` [TUCATINIB]: the Kd (at Ephrin type-A receptor 2; in [1]; at Ephrin type-A receptor 7; in [2]; on Insulin receptor; in test [3]) was > 30 µM (inactive) in each case. Further, the Kd in test [4], in test [5], in test [6] and in test [7] was > 30 µM (inactive) in each case.

Turning to `CC(C)c1cc(CNc2nc(Nc3cc(C4CC4)[nH]n3)cc(N3CCN(C)CC3)n2)on1` [XL-228], the Kd was 0.032 µM (active) on Ephrin type-A receptor 2; 4.21 µM in [1]; 0.017 µM (active) on Ephrin type-A receptor 7; > 30 µM (inactive) in test [2]; 0.144 µM (active) on Insulin receptor; > 30 µM (inactive) in test [3]. For the same compound, the Kd in test [4] is 0.133 µM (active); in [5], > 30 µM (inactive); in test [6] it was > 30 µM (inactive); in test [7], > 30 µM (inactive).

On to `C[C@@H](N)c1ccc(C(=O)Nc2ccnc3[nH]ccc23)cc1` [Y-39983], for which the Kd at Ephrin type-A receptor 2 was > 30 µM (inactive); in test [1] it was > 30 µM (inactive); on Ephrin type-A receptor 7, > 30 µM (inactive); in test [2], 2.03 µM (active); on Insulin receptor, > 30 µM (inactive); in [3] it was > 30 µM (inactive). Besides, the Kd is 38.5 µM (active) in test [4], > 30 µM (inactive) in test [5], > 30 µM (inactive) in test [6] and > 30 µM (inactive) in test [7].

Turning to `CN1C/C=C/CCOc2cccc(c2)-c2ccnc(n2)Nc2cccc(c2)C1` [ZOTIRACICLIB], the Kd on Ephrin type-A receptor 2 was > 30 µM (inactive); in test [1], > 30 µM (inactive); on Ephrin type-A receptor 7, > 30 µM (inactive); in test [2] it was 2.14 µM; at Insulin receptor it was > 30 µM (inactive); in test [3], > 30 µM (inactive). Besides, the Kd in test [4], in test [5], in test [6] and in test [7] was > 30 µM (inactive) throughout.
